Results on 3 compounds are retold here after patent US20250287945A1, “COMPOSITIONS FOR FUNGAL CONTROL AND RELATED METHODS” (priority 2021, published 2025).

Several values for one entry are separate records, joined by “and”; a condition that tells them apart may be missing. Identical values can stand only once. Like-named read-outs stand apart in the source and are kept apart here.

For one data set, the system named is Fusarium culmorum. The data set is classed as cell-based.
The test system of a further data set is Fusarium graminearum. The data set is classed as cell-based. The note with it: 22 hours incubation; modified RPMI medium, 25 degrees Celsius; concentration not given.
In a further data set the test system is Phytophthora infestans. The data set is classed as cell-based. Conditions: 7 days incubation; modified RPMI medium, 25 degrees Celsius; concentration not given.
The test system of another data set is Zymoseptoria tritici. It counts as cell-based.
Data set [1] has as its system Fusarium conidial suspension. The data set can be described thus: Fusarium viability colorimetric assay (PrestoBlue resazurin). The data set is classed as cell-based. As to the method: A Fusarium conidial suspension was prepared from a 7-day culture of Fusarium biomass grown on potato dextrose agar for 7 days, and quantified by hemocytometer, as described in Example 4. Solutions of fenpiclonil (Millipore Sigma, Cat. no. 36532) and of the individual peptides were prepared in 50% (w/v) ethanol in water, and tested using a PrestoBlue™ (resazurin) viability colorimetric assay as described in Example 4.
The Fusarium conidial suspension, peptide or control treatment solution, and potato dextrose broth (Alpha Biosciences, catalogue no. P16-126) were added to each well of a 96-well plate to obtain the desired treatment concentration and 1×10^6 conidia/mL in a final volume of 150 microliters per well. The plates were covered and incubated at 30° C. for 18 hours and 200 rpm. Fifteen microliters of PrestoBlue™ Cell Viability Reagent (Thermofisher Scientific, Cat no. A13262) were added to each well, and the plate was further incubated before measuring fluorescence at 590 nm emission with excitation at 560 nm using a spectrophotometer (BioTek Synergy H1 Microplate Reader, Fischer Scientific, Cat. no. 11-120-533).
On the technique in general: The colour change of resazurin is a common sign of viable cells or microbes.

The subject of data set [2] is Botrytis cinarea (strain CBS 261.71). The data set can be described thus: Botrytis viability colorimetric assay (PrestoBlue resazurin). It counts as cell-based, Botrytis cinerea. The note with it: 375 micromolar.
The subject of a further data set is Botrytis cinerea. Briefly: Fungal lesion size on detached Nicotiana benthamiana leaves after topical treatment. It counts as in vivo, Botrytis cinerea on Nicotiana benthamiana leaves. As to the method:
In one experiment, leaves of similar age were cut from healthy Nicotiana benthamiana plants and the petioles set into plates containing water agar. Leaves were visually divided into quadrants. […] The plates were covered and placed in a humidified secondary container and incubated in a growth chamber under a 14-hour light (20 degrees C.): 10-hour dark (18 degrees C.) cycle. After 11 days, fungal lesions on leaves were photographed and measured manually with a ruler. Leaves were then destained in 70% ethanol for 48 hours with a change of ethanol at 24 hours, rehydrated in water for at least 1 hour, photographed, and the area of the fungal lesions quantified using ImageJ software (see imagej[dot]nih[dot]gov/ij/). […] The leaf quadrants inoculated with B. cinerea and treated with 100 microliters of treatment solution (MES buffer or HH38 in MES buffer) had comparatively larger areas wetted with liquid. All of the leaf quadrants treated with 5 mM MES buffer developed large (average 1.72 cm width) fungal lesions characterized by grey-black fungal growth. […] […] Twenty microliters of a given treatment mixture were pipetted onto a leaf quadrant (3 replicate leaves per treatment for a total of 12 quadrants). After 7 days incubation in a growth chamber, leaves were photographed, destained in 70% ethanol, photographed again, and the area of the fungal lesions quantified using ImageJ software. […] The fungal lesions in the HH38 treatment were also observed to be 39% smaller than in the 2% DMSO treatment, and 19% smaller than in the 5 mM MES treatment, although not to a statistically significant degree using an unpaired t test.

Data set [3] relates to Aspergillus fumigatus CBS 120.53. The data set can be described thus: Micro broth dilution assay in 96-well plates. Conditions: 3 days of incubation; 375 micromolar or 187.5 micromolar; preliminary. It counts as cell-based. A general note: Broth dilution looks for growth in wells or tubes with falling amounts of substance.
The test system of data set [4] is Aspergillus flavus DSM 1959. Briefly: Micro broth dilution assay in 96-well plates. Conditions: 3 days of incubation; 375 micromolar or 187.5 micromolar; preliminary. It counts as cell-based.
The test system of data set [5] is Fusarium oxysporum CBS 130311. Briefly: Micro broth dilution assay in 96-well plates. It counts as cell-based. Conditions: 3 days of incubation; 375 micromolar or 187.5 micromolar; preliminary.
Data set [6] concerns Mucor circinelloides f. janssenii CBS 204.68. The data set can be described thus: Micro broth dilution assay in 96-well plates. Conditions: 3 days of incubation; 375 micromolar or 187.5 micromolar; preliminary. The data set is classed as cell-based.
Data set [7] concerns Rhizomucor miehei CBS 147454. Briefly: Micro broth dilution assay in 96-well plates. The data set is classed as cell-based. Conditions: 3 days of incubation; 375 micromolar or 187.5 micromolar; preliminary.
The subject of data set [8] is Cryptococcus neoformans DSM 70219. Briefly: Micro broth dilution assay in 96-well plates. The data set is classed as cell-based. Conditions: 2 days of incubation; 375 micromolar; preliminary.
Data set [9] relates to conidia of Fusarium proliferatum. The data set can be described thus: oCelloScope live-cell imaging of fungal growth (SESA algorithm). The data set is classed as cell-based.
For data set [10], the system named is Nicotiana benthamiana leaves. Briefly: Phytotoxicity at the treatment site on detached leaves. It counts as in vivo. The note with it: 275 micromolar in 50% ethanol, 100 microliters on leaf quadrant.
[11] abbreviates: first experiment, 275 micromolar HH38 in 5 mM MES buffer, after 11 days, lesion area by ImageJ, replicate leaves 1-3.
Setting [12] is: first experiment, 275 micromolar HH38 in 5 mM MES buffer, after 11 days, ruler, replicate leaves 1-3.
[13] abbreviates: second experiment, inoculum pre-mixed with HH38, 7 days, ImageJ area, not statistically significant.

For the compound WHWLQLKPGQPMYRRRRRRRR [SEQ ID NO: 2240], the “inhibition relative to a control” value in the data set with Fusarium culmorum, with Fusarium graminearum, in the data set on Phytophthora infestans and in the data set with Zymoseptoria tritici was at least 50% throughout.

On to “WHWLQLKPGQPMYGGGGSWHWLQLKPGQPMY (listed as Saccharomyces cerevisiae) [SEQ ID NO: 2189, Saccharomyces cerevisiae alpha pheromone homodimer including glycine linker]”, for which the “Percent Inhibition (Fusarium), Experiment 5, Mean” value in data set [1] is given as 79.77%. Also, the “Botrytis cell viability versus untreated / 50% ethanol carrier” value in [2] is given as “reducing Botrytis cell viability as well as did the fenpiclonil treatment”. In addition, in data set [2] (four replicates), the “Percent Inhibition (Botrytis), Mean” value is 79.77%. In addition, in [2] (sentence prints Fusarium in the Botrytis assay), the “viability decrease relative to that obtained with the positive control (fenpiclonil)” value is given as “roughly about two-thirds of the viability decrease obtained using the positive control”. In the data set on Botrytis cinerea (first experiment, 275 micromolar HH38 in 5 mM MES buffer, 100 microliters per inoculated leaf quadrant, after 11 days, measured with a ruler, replicate leaves 1-3), the “Lesion 1 (cm)” value turned out to be 0 cm. The “Lesion 1 (pixels)” value in the data set on Botrytis cinerea (first experiment, 275 micromolar HH38 in 5 mM MES buffer, after 11 days, destained leaves, lesion area by ImageJ, replicate leaves 1-3) was determined as 0 pixels. For the same compound, the “Treatment Average (pixels)” value in the data set on Botrytis cinerea (first experiment, 275 micromolar HH38 in 5 mM MES buffer, after 11 days, lesion area by ImageJ, average of 3 leaves) came out at 157 pixels. For the same compound, the “Replicate Averages (pixels)” value in the data set on Botrytis cinerea (first experiment, 275 micromolar HH38 in 5 mM MES buffer, after 11 days, lesion area by ImageJ, average of 4 quadrants) is 0.00 pixels (2×) and 472 pixels. Also, in the data set with Botrytis cinerea (setting [11]), the “Lesion 2 (pixels)” value is 0 pixels (2×) and 1889 pixels; the “Lesion 3 (pixels)” value worked out at 0 pixels; the “Lesion 4 (pixels)” value was determined as 0 pixels. The “Treatment Average (cm)” value with Botrytis cinerea (first experiment, 275 micromolar HH38 in 5 mM MES buffer, after 11 days, ruler, average of 3 leaves) came out at 0.042 cm. Besides, the “Average (cm) per replicate leaf” value in the data set on Botrytis cinerea (first experiment, 275 micromolar HH38 in 5 mM MES buffer, after 11 days, ruler, average of 4 quadrants) is 0 cm (2×) and 0.12 cm. In addition, in the data set on Botrytis cinerea (setting [12]), the “Lesion 2 (cm)” value was 0 cm (2×) and 0.5 cm; the “Lesion 3 (cm)” value came to 0 cm; the “Lesion 4 (cm)” value worked out at 0 cm. In the data set with Botrytis cinerea (first experiment, result sentence prints 375 micromolar HH38 (method: 275 micromolar), after 11 days), the “leaf quadrants that developed any measurable fungal lesion” value is reported as 1 out of 12. In addition, in the data set with Botrytis cinerea (setting [13]), the “fungal lesions smaller than in the 5 mM MES treatment” value came out at 19% and the “fungal lesions smaller than in the 2% DMSO treatment” value is 39%. Also, the “fungal lesions smaller than the untreated (diluted grape juice) control” value with Botrytis cinerea (second experiment, inoculum pre-mixed with in 2% DMSO in 5 mM MES buffer, 7 days, ImageJ area, statistically significant (unpaired t test)) was determined as 44%. Moreover, the “inhibition of growth / growth pattern” value in data set [3] was “sometimes induced changes in growth pattern”. In addition, in [4], the “inhibition of growth / growth pattern” value is “sometimes induced changes in growth pattern”. Further, the “inhibition of growth / growth pattern” value in [5] is listed as “sometimes induced changes in growth pattern”. For the same compound, the “inhibition of growth / growth pattern” value in data set [6] is “sometimes induced changes in growth pattern”. Also, the “inhibition of growth / growth pattern” value in data set [7] is reported as “sometimes induced changes in growth pattern”. Moreover, the “growth / growth pattern” value in [8] is “change this species' growth pattern”. Further, the “statistical significance of antifungal activity” value in [9] is “statistically significant antifungal activity”.

In the case of `N#Cc1c[nH]cc1-c1cccc(Cl)c1Cl` [Fenpiclonil, 4-(2,3-dichlorophenyl)-1H-pyrrole-3-carbonitrile, reference compound], in [1] (Experiment 4, four replicates, protocol and peptides as third experiment (175 and 375 micromolar), concentration not given), the “Percent Inhibition (Fusarium), Experiment 4, Mean” value amounted to 82.25%. For the same compound, the “Percent Inhibition (Fusarium), Experiment 5, Mean” value in [1] (Experiment 5, four replicates, protocol and peptides as third experiment (175 and 375 micromolar), concentration not given) is 79.19%. Moreover, the inhibition at 375 µM in data set [2] (Botrytis, CBS261, four replicates, read-out: Percent Inhibition (Botrytis), Mean) was determined as 75.8%. Besides, the “phytotoxicity (tissue necrosis at the treatment site)” value in data set [10] is recorded as “phytotoxic”.

A word on the inhibition: it is the change of the read-out against control, counted positive when it falls.
